Source: patent US20220241249A1, “PHARMACEUTICAL COMPOSITION AND KIT CONTAINING NOVEL PENAM DERIVATIVE OR SALT THEREOF AND ONE OR MORE COMPOUNDS SELECTED FROM beta-LACTAMASE INHIBITORY COMPOUND AND ANTIBACTERIAL COMPOUND OR SALTS THEREOF” (priority 2019, published 2022)
≈ marks a conversion by molar mass, not a printed value.

Key:
[1] = test system: multidrug-resistant Pseudomonas aeruginosa strain (S-2838 strain); assay: Test for protection against systemic infection in mouse with multidrug-resistant Pseudomonas aeruginosa; type: in vivo; details: sc, 72 h, read-out: survival rate 3 days after the inoculation with bacteria
Procedure: As mice, ICR male SPF mice (4 weeks old: 10 mice per group) were used. Clinically isolated multidrug-resistant Pseudomonas aeruginosa strain (S-2838 strain) cultured overnight on a Mueller-Hinton agar plate at 37° C. was cultured on a cation-adjusted Mueller Hinton medium for 5 hours, and then diluted 20-fold with a 10% mucin/phosphate buffer, thereby preparing an inoculum. An infection was induced by intraperitoneally inoculating the mice with the inoculum at 0.5 mL (about 10^6 CFU/mouse). Each test compound was dissolved in physiological saline, and 1 hour after the infection, the compound was subcutaneously administered once to the mice at 40 mg/kg. The control group was administered with the same amount of physiological saline used as a vehicle. The number of surviving mice was recorded 3 days after the infection.
A test for protection against systemic infection in a mouse with multidrug-resistant Pseudomonas aeruginosa was performed in the same manner as in Test Example 2.

[2] = test system: OXA-48-containing Klebsiella pneumoniae strain (Y-1062); assay: Antibacterial activity evaluation test, MIC by broth microdilution (CLSI); type: cell-based; details: Klebsiella pneumoniae
In short: (§1)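 MIC (μg/mL) = lowest drug concentration showing no visible bacterial growth after 16–20 h at 35° C. in cation-adjusted Mueller Hinton broth. Inoculum: agar-grown cells at 0.5 McFarland, diluted 10-fold.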

[3] = test system: NDM-1-containing Klebsiella pneumoniae strain (Y-1007); assay: as above; type: cell-based; details: Klebsiella pneumoniae
In short: as §1

[4] = test system: Pseudomonas aeruginosa strain ATCC27853; assay: as above; type: cell-based; details: Pseudomonas aeruginosa, ATCC27853
In short: as §1

[5] = test system: AmpC-derepressed Pseudomonas aeruginosa mutant strain (S-3028); assay: as above; type: cell-based; details: Pseudomonas aeruginosa
In short: as §1

[6] = test system: IMP-1-containing Pseudomonas aeruginosa strain (S-2838); assay: as above; type: cell-based; details: Pseudomonas aeruginosa
In short: as §1

[7] = test system: GES-19 and GES-20-containing Pseudomonas aeruginosa strain (S-3759); assay: as above; type: cell-based; details: Pseudomonas aeruginosa
In short: as §1

[8] = test system: VIM-2-containing Pseudomonas aeruginosa strain (S-3779); assay: as above; type: cell-based; details: Pseudomonas aeruginosa
In short: as §1

[9] = test system: KPC-2-containing Klebsiella pneumoniae strain (Y-995); assay: as above; type: cell-based; details: Klebsiella pneumoniae
In short: as §1

[10] = test system: CTX-M-15-containing Escherichia coli strain (TK-1747); assay: as above; type: cell-based; details: Escherichia coli
In short: as §1

| Compound | responders at 40 mg/kg [1] | MIC [2] | MIC [3] | MIC [4] | MIC [5] | MIC [6] | MIC [7] | MIC [8] | MIC [9] | MIC [10] |
| --- | --- | --- | --- | --- | --- | --- | --- | --- | --- | --- |
| Nc1nc(/C(=N/OC2(C(=O)O)CCC2)C(=O)N[C@@H]2C(=O)N3C[C@@](C(=O)O)(N4CCN(NC(=O)C(=O)c5ccc(O)c(O)c5Cl)C4=O)S[C@H]23)cs1 [Example 19, (3R,5R,6R)-6-((Z)-2-(2-aminothiazol-4-yl)-2-((-1-carboxycyclobutoxy)imino)acetamido)-3-(3-(2-(2-chloro-3,4-dihydroxyphenyl)-2-oxoacetamido)-2-oxoimidazolidin-1-yl)-7-oxo-4-thia-1-azabicyclo[3.2.0]heptane-3-carboxylic acid] | ≥ 90% | 0.12 µg/mL (≈ 0.159 µM) | < 0.06 µg/mL | 0.25 µg/mL (≈ 0.332 µM) | 2 µg/mL (≈ 2.66 µM) | 0.25 µg/mL (≈ 0.332 µM) | 0.25 µg/mL (≈ 0.332 µM) | 0.25 µg/mL (≈ 0.332 µM) | 0.25 µg/mL (≈ 0.332 µM) | 0.5 µg/mL (≈ 0.664 µM) |
| CC(C)(O/N=C(\C(=O)N[C@@H]1C(=O)N2C[C@@](C(=O)O)(N3CCN(NC(=O)C(=O)c4ccc(O)c(O)c4Cl)C3=O)S[C@H]12)c1nsc(N)n1)C(=O)O [Example 23, (3R,5R,6R)-6-((Z)-2-(5-amino-1,2,4-thiadiazol-3-yl)-2-(((2-carboxypropan-2-yl)oxy)imino)acetamido)-3-(3-(2-(2-chloro-3,4-dihydroxyphenyl)-2-oxoacetamido)-2-oxoimidazolidin-1-yl)-7-oxo-4-thia-1-azabicyclo[3.2.0]heptane-3-carboxylic acid] | ≥ 90% | 0.5 µg/mL (≈ 0.674 µM) | < 0.06 µg/mL | 0.25 µg/mL (≈ 0.337 µM) | 0.5 µg/mL (≈ 0.674 µM) | 1 µg/mL (≈ 1.35 µM) | 1 µg/mL (≈ 1.35 µM) | 0.25 µg/mL (≈ 0.337 µM) | 0.25 µg/mL (≈ 0.337 µM) | 0.25 µg/mL (≈ 0.337 µM) |
| CC(C)(O/N=C(\C(=O)NC1C(=O)N2C[C@@](C(=O)O)(N3CCN(NC(=O)CCNC(=O)/C(=N\O)c4ccc(O)c(O)c4Cl)C3=O)S[C@H]12)c1csc(N)n1)C(=O)O (stereo partly shown) [Example 122] | ≥ 90% | 1 µg/mL (≈ 1.21 µM) | < 0.06 µg/mL | 1 µg/mL (≈ 1.21 µM) | 2 µg/mL (≈ 2.42 µM) | 2 µg/mL (≈ 2.42 µM) | 2 µg/mL (≈ 2.42 µM) | 2 µg/mL (≈ 2.42 µM) | 0.5 µg/mL (≈ 0.604 µM) | 0.5 µg/mL (≈ 0.604 µM) |
| Nc1nc(/C(=N/OC2(C(=O)O)CC2)C(=O)N[C@@H]2C(=O)N3C[C@@](C(=O)O)(N4CCN(NC(=O)CCNC(=O)C(=O)c5ccc(O)c(O)c5Cl)C4=O)S[C@H]23)cs1 [Example 31, (3R,5R,6R)-6-((Z)-2-(2-aminothiazol-4-yl)-2-((1-carboxycyclopropoxy)imino)acetamido)-3-(3-(3-(2-(2-chloro-3,4-dihydroxyphenyl)-2-oxoacetamido)propanamido)-2-oxoimidazolidin-1-yl)-7-oxo-4-thia-1-azabicyclo[3.2.0]heptane-3-carboxylic acid] | ≥ 90% | 1 µg/mL (≈ 1.23 µM) | 0.12 µg/mL (≈ 0.148 µM) | 0.25 µg/mL (≈ 0.309 µM) | < 0.06 µg/mL | 1 µg/mL (≈ 1.23 µM) | 0.5 µg/mL (≈ 0.617 µM) | 0.25 µg/mL (≈ 0.309 µM) | 0.12 µg/mL (≈ 0.148 µM) | 1 µg/mL (≈ 1.23 µM) |
